# Target: T1, GID4 (Uniprot ID: Q81VV7, residues 124-289) (Homo sapiens, UniProt Q8IVV7)
# T1 construct: GID4 (Uniprot ID: Q81VV7, residues 124-289)
# T1 sequence (Q8IVV7 124-289): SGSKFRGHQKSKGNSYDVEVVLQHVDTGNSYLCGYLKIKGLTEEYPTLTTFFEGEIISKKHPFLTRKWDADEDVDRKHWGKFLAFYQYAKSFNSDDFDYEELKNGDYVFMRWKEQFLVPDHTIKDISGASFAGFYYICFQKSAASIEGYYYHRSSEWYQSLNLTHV
# Assay: GID4 competitive binding assay (AlphaScreen, GID4/degron peptide PGLW)
# Conditions: 24 nM GID4, 48 nM biotinylated degron peptide PGLW, 4° C., read-out: IC50 (Inhibition of GID4/Degron binding by test compounds)
# Procedure: GID4 Competitive Binding Assay
# GID4 binding affinity of compounds disclosed herein was measured by monitoring the interaction of GID4 with its degron peptide (PGLW) in the presence of the test compounds. A truncated version of GID4 (Uniprot ID: Q81VV7, residues 124-289) with a 6*His at its C-terminus was used in this assay. Tetrapeptide, PGLW, was synthesized and tagged with an additional lysine labeled with biotin at its sidechain.
# GID4 competitive binding assays were performed in a 384-well plate at 4° C. in a 20 μL reaction volume. Briefly, 24 nM GID4 (final concentration) proteins were pre-incubated with 48 nM biotinylated degron peptide (final concentration) in an assay buffer containing 20 mM HEPES, pH 7.5, 100 mM NaCl, 1 mM DTT, 0.1% Tween-20, and 0.05% BSA in the presence of the test compound in 2% DMSO (final concentration) at various concentrations for 2 h. 5 ug/ml Streptavidin ALphaScreen donor beads and 5 ug/ml nickel chelate (Ni-NTA) ALphaScreen acceptor beads (PerkinElmer, 6760619C) (final concentrations) were then added to the mixture. After an incubation of 1 h at 4° C., the fluorescent signals were obtained on the EnVision® 2105 Multilabel Plate Reader (PerkinElmer).
# Raw ALphaScreen data were converted to a percentage of inhibition (relative to DMSO) using the following equations: […]
# For a given test compound concentration X:
# Signal (X)=Signal (GID4 & peptide & compound)−Signal (GID4 & buffer & compound)
# Percentage of inhibition at concentration X=[1−Signal(X)/Signal (DMSO)]*100% b)
# The IC50 values were determined by nonlinear regression of plots of [inhibitor] vs. percentage of inhibition with variable slope.
# Table 3 summarizes the inhibition of binding between GID4 and degron peptide with compounds of the present disclosure. Compounds were ranked into bins as follows for IC50: A indicates <500 nM; B indicates 500 nM-5000 nM; C indicates >5000 nM.
row,IC50 [nM],SMILES
1,> 5000,"Nc1nc(N)c(F)c(N2CCOC(c3ccccc3Br)C2)n1 (single isomer, unassigned) [Compound 48, (S/R)-6-(2-(2-bromophenyl)morpholino)-5-fluoropyrimidine-2,4-diamine]"
2,> 5000,"Nc1nc2c(c(N3CCCC(c4ccn[nH]4)C3)n1)COCC2 (stereo not drawn) [Compound 196, 4-(3-(1H-pyrazol-5-yl)piperidin-1-yl)-7,8-dihydro-5H-pyrano[4,3-d]pyrimidin-2-amine]"
3,> 5000,"Nc1nc(NC2CC2)nc(N2CCN(CCO)C(c3ccccc3Br)C2)n1 (stereo not drawn) [Compound 53, 2-(4-(4-amino-6-(cyclopropylamino)-1,3,5-triazin-2-yl)-2-(2-bromophenyl)piperazin-1-yl)ethan-1-ol]"
4,500 to 5000,"CN(C)CCCNC(=O)N1CC=C(c2cc(O)c3ncccc3c2)CC1 [Compound 306, N-(3-(dimethylamino)propyl)-4-(8-hydroxyquinolin-6-yl)-3,6-dihydropyridine-1(2H)-carboxamide]"
5,> 5000,"CC(C)c1cc(N2CCC(O)(c3ccccc3Br)C2)nc(N)n1 (stereo not drawn) [Compound 231, 1-(2-amino-6-isopropylpyrimidin-4-yl)-3-(2-bromophenyl)pyrrolidin-3-ol]"
6,< 500,"CN1CCC(CNC(=O)c2n[nH]c3ccc(-c4ccc5ccnc(N)c5c4)cc23)CC1 [Compound 337, 5-(1-aminoisoquinolin-7-yl)-N-((1-methylpiperidin-4-yl)methyl)-1H-indazole-3-carboxamide]"
7,500 to 5000,"CC(C)c1cc(N2CCC(c3cnc4ccccn34)C2)nc(N)n1 (stereo not drawn) [Compound 253, 4-(3-(imidazo[1,2-a]pyridin-3-yl)pyrrolidin-1-yl)-6-isopropylpyrimidin-2-amine]"
8,< 500,"CN(C)CCCNC(=O)c1ccc(-c2cc3cccnc3c(O)c2Cl)cc1 [Compound 321, 4-(7-chloro-8-hydroxyquinolin-6-yl)-N-(3-(dimethylamino)propyl)benzamide]"
9,> 5000,"CNC(=O)c1ccc2nnc(C3CCCN(c4cc(C(C)C)nc(N)n4)C3)n2c1 (stereo not drawn) [Compound 166, 3-(1-(2-amino-6-isopropylpyrimidin-4-yl)piperidin-3-yl)-N-methyl-[1,2,4]triazolo[4,3-a]pyridine-6-carboxamide]"
10,500 to 5000,"CC(C)c1cc(N2CCCC(c3c[nH]c4ccccc34)C2)nc(N)n1 (stereo not drawn) [Compound 249, 4-(3-(1H-indol-3-yl)piperidin-1-yl)-6-isopropylpyrimidin-2-amine]"
11,< 500,"Nc1nc(NCC2CC2)cc(N2CCN[C@@H](c3ccccc3Br)C2)n1 (racemic) [Compound 112, (S/R)-6-(3-(2-bromophenyl)piperazin-1-yl)-N4-(cyclopropylmethyl)pyrimidine-2,4-diamine]"
12,< 500,"CN(C)CCCNC(=O)c1ccc(-c2cc(O)c3nccnc3c2)cc1 [Compound 285, N-(3-(dimethylamino)propyl)-4-(8-hydroxyquinoxalin-6-yl)benzamide]"
13,< 500,"CC(C)c1nc(N2CCNC(c3cnc4ccccn34)C2)c2nc[nH]c2n1 (stereo not drawn) [Compound 373, 6-(3-(imidazo[1,2-a]pyridin-3-yl)piperazin-1-yl)-2-isopropyl-9H-purine]"
14,< 500,"CC(C)c1cc(N2CCNC(c3cc(C(=O)NCCN(C)C)ccc3Br)C2)nc(N)n1 (racemic) [Compound 21, R or S-3-(4-(2-amino-6-isopropylpyrimidin-4-yl)piperazin-2-yl)-4-bromo-N-(2-(dimethylamino)ethyl)benzamide]"
15,500 to 5000,"CN(C)CCCNC(=O)c1ccc2c(-c3ccc4ccnc(N)c4c3)csc2c1 [Compound 357, 3-(1-aminoisoquinolin-7-yl)-N-(3-(dimethylamino)propyl)benzo[b]thiophene-6-carboxamide]"
16,500 to 5000,"CC(C)c1cc(N2CC[C@H](O)[C@@H](c3ccccc3Br)C2)nc(N)n1 (relative stereo) [Compound 223, (3,4-trans)-1-(2-amino-6-isopropylpyrimidin-4-yl)-3-(2-bromophenyl)piperidin-4-ol]"
17,> 5000,"CN1CCN(CCc2cccc(-c3ccc4ccnc(N)c4c3)c2)CC1 [Compound 344, 7-(3-(2-(4-methylpiperazin-1-yl)ethyl)phenyl)isoquinolin-1-amine]"
18,< 500,"CC(C)c1cc(N2CCNC(c3cnc4ccccn34)C2)c2cc[nH]c2n1 (single isomer, unassigned) [Compound 372, (S/R)-3-(4-(6-isopropyl-1H-pyrrolo[2,3-b]pyridin-4-yl)piperazin-2-yl)imidazo[1,2-a]pyridine]"
19,< 500,"CC(C)c1cc(N2CCCC(c3cnc4ccccn34)C2)c2nc[nH]c2n1 (stereo not drawn) [Compound 19, 7-(3-(imidazo[1,2-a]pyridin-3-yl)piperidin-1-yl)-5-isopropyl-3H-imidazo[4,5-b]pyridine]"
20,> 5000,"Nc1nc(C2CCC2)cc(N2CCCC(c3ccn[nH]3)C2)n1 (stereo not drawn) [Compound 212, 4-(3-(1H-pyrazol-5-yl)piperidin-1-yl)-6-cyclobutylpyrimidin-2-amine]"
21,500 to 5000,"CN(C)CCCNC(=O)c1ccc(-c2cc(O)c3ncc(=O)[nH]c3c2)cc1 [Compound 273, N-(3-(dimethylamino)propyl)-4-(8-hydroxy-3-oxo-3,4-dihydroquinoxalin-6-yl)benzamide]"
22,< 500,"CN(C)CCNC(=O)c1n[nH]c2ccc(-c3ccc4ccnc(N)c4c3)cc12 [Compound 341, 5-(1-aminoisoquinolin-7-yl)-N-(2-(dimethylamino)ethyl)-1H-indazole-3-carboxamide]"
23,< 500,"CN(C)CCCNC(=O)c1ccc(-c2cc(O)c3nc(N)ccc3c2)cc1 [Compound 261, 4-(2-amino-8-hydroxyquinolin-6-yl)-N-(3-(dimethylamino)propyl)benzamide]"
24,> 5000,"Nc1cc(N2CCN(CCO)[C@@H](c3ccccc3Br)C2)nc(N)n1 (stereo in doubt) [Compound 66, (S/R)-2-(2-(2-bromophenyl)-4-(2,6-diaminopyrimidin-4-yl)piperazin-1-yl)ethan-1-ol]"
25,< 500,"CNc1nc(N)cc(N2CCNC(c3ccccc3Br)C2)n1 (racemic) [Compound 114, (S/R)-6-(3-(2-bromophenyl)piperazin-1-yl)-N2-methylpyrimidine-2,4-diamine]"
26,< 500,"CN(C)CCCNC(=O)c1ccc(-c2cc3cccnc3c(O)c2F)cc1 [Compound 308, N-(3-(dimethylamino)propyl)-4-(7-fluoro-8-hydroxyquinolin-6-yl)benzamide]"
27,< 500,"CN1CCC(C)(NC(=O)c2n[nH]c3ccc(-c4ccc5ccnc(N)c5c4)cc23)CC1 [Compound 10, 5-(1-aminoisoquinolin-7-yl)-N-(1,4-dimethylpiperidin-4-yl)-1H-indazole-3-carboxamide]"
28,500 to 5000,"CN(C)CCCNC(=O)c1ccc(-c2cc(O)c3ncccc3n2)cc1 [Compound 304, N-(3-(dimethylamino)propyl)-4-(4-hydroxy-1,5-naphthyridin-2-yl)benzamide]"
29,> 5000,"CNc1cc(N2CCCC(n3ncc4ccccc43)C2)nc(N)n1 (stereo not drawn) [Compound 254, 6-(3-(1H-indazol-1-yl)piperidin-1-yl)-N4-methylpyrimidine-2,4-diamine]"
30,> 5000,"Nc1nc(NC2CC2)cc(N2CCO[C@@H](c3ccccc3)C2)n1 (racemic) [Compound 95, (S/R)-N4-cyclopropyl-6-(2-phenylmorpholino)pyrimidine-2,4-diamine]"

# From patent US20240132464A1, “HETEROCYCLIC COMPOUNDS AS E3 LIGASE INHIBITORS” (Accutar Biotechnology Inc., priority 2022, published 2024)
